Peptide text beside a SMILES is read from it. * marks the point of attachment. Biotin = O=C1N[C@H]2[C@H](CS[C@H]2CCCCC(=O)*)N1
Tests used:
U87 glioblastoma cells = test: MTT assay; type: cell-based, human; conditions: 1 × 10^5 cells/100 μl/well, 96-well, 37°C, sample concentration for the table not stated (0.1-2.5 mg/mL tested), absorbance 570 nm
Method: The cytotoxicity of ANG, ANG-TAT, ANG-PTX and ANG-TAT-PTX were determined using the 3-[4,5-dimethylthiazol-2-yl]-2,5-diphenyl tetrazolium bromide (MTT) assay. Human U87 glioblastoma cell (1×10^5 cells/100 μl per well) were cultured in 96-well plates at 37°C in 5% CO2. Aqueous solutions of the samples were dissolved in culture medium at final concentrations of 0.1, 0.5, 1, and 2.5 mg/mL. After incubation for 24 and 48 hours, the MTT solution (in 2 mg/mL phosphate-buffered saline) was added, the plates were incubated for 4 hours, and the cells were lysed with 50% N, N-dimethylformamide containing 20% sodium dodecyl sulfate (pH 4.5). Absorbance at 570 nm was measured for each well using a SpectraMax M5 (Molecular Devices, Sunnyvale, CA USA). The absorbance of control cells was taken as 100% viability, and the values of the treated cells were calculated as a percentage of the control.

[1] = system: U87 glioblastoma brain tumor tissue; test: Brain extraction of biotin labelled peptides after tail vein injection in mice with intracerebral U87 tumors; type: in vivo, CD-1 nude mice; conditions: 50 μg/kg, brain removed 15 min after injection, tumor implanted right hemisphere, biotin quantitative kit, P<0.05
Method: Biotin ANG and biotin ANG-TAT (50 μg/kg body weight) were injected into the tail vein of CD-1 nude mice carrying intracerebral implants of U87 glioblastoma cells. Fifteen minutes after injection the mice were killed, and the brains were surgically removed. The brain tissues were dissected and maintained in cold saline containing protease inhibitors until processing. To compare normal and tumor brain tissue, the right hemisphere (implanted hemisphere) was compared with the left hemisphere (non-implanted hemisphere). To extract biotin ANG and biotin ANG-TAT, tissues were mechanically homogenized in homogenization buffer (0.1 M Tris–HCl, pH 5.0, 50 mM sucrose, 0.003% Tween-80, and protease inhibitor cocktail) on ice. Acetonitrile (ACN) 100% was added to a final concentration of 65% (v/v). The mixture was stirred for 10 min in a cold room and then centrifuged at 3000 r.p.m. for 5 min. Acetonitrile supernatants were collected and dried in a rotative evaporator and finally freeze-dried. The concentration of biotin ANG and biotin ANG-TAT in the samples was determined using biotin quantitative kit from Elabsciences, Inc (Shanghai, China).
The U87 cell line was used to assess peptide uptake in an animal model of glioma. Cells suspension were prepared at a final concentration of 1×10^4 cells/ml in PBS and kept on ice until injection. […]

SMILES	MTT assay of ANG-TAT-PTX in tumor cells, 24h (U87 glioblastoma cells; 5% CO2, 24 h incubation)	MTT assay of ANG-TAT-PTX in tumor cells, 48h (U87 glioblastoma cells; 5% CO2, 48 h incubation)	Amount extracted from tumor tissue relative to biotin ANG [1]
CC(=O)O[C@H]1C(=O)[C@@]2(C)[C@H]([C@H](OC(=O)c3ccccc3)[C@]3(O)C[C@H](OC(=O)[C@H](O)[C@@H](NC(=O)c4ccccc4)c4ccccc4)C(C)=C1C3(C)C)[C@]1(OC(C)=O)CO[C@@H]1C[C@@H]2O [Free PTX, Paclitaxel]	20.53±2.21	42.36±2.35	–
C[C@@H](O)[C@H](N)C(=O)N[C@@H](Cc1ccccc1)C(=O)N[C@@H](Cc1ccccc1)C(=O)N[C@@H](Cc1ccc(O)cc1)C(=O)NCC(=O)NCC(=O)N[C@@H](CO)C(=O)N[C@@H](CCCNC(=N)N)C(=O)NCC(=O)N[C@@H](CCCCN)C(=O)N[C@@H](CCCNC(=N)N)C(=O)N[C@@H](CC(N)=O)C(=O)N[C@@H](CC(N)=O)C(=O)N[C@@H](Cc1ccccc1)C(=O)N[C@@H](CCCCNC(=O)CCCC[C@@H]1SC[C@@H]2NC(=O)N[C@@H]21)C(=O)N[C@H](C(=O)N[C@@H](CCC(=O)O)C(=O)N[C@@H](CCC(=O)O)C(=O)N[C@@H](Cc1ccc(O)cc1)C(=O)NCC(=O)N[C@@H](CCCNC(=N)N)C(=O)N[C@@H](CCCCN)C(=O)N[C@@H](CCCCN)C(=O)N[C@@H](CCCNC(=N)N)C(=O)N[C@@H](CCCNC(=N)N)C(=O)N[C@@H](CCC(N)=O)C(=O)N[C@@H](CCCNC(=N)N)C(=O)N[C@@H](CCCNC(=N)N)C(=O)N[C@@H](CCCNC(=N)N)C(=O)N1CCC[C@H]1C(=O)N1CCC[C@H]1C(=O)N[C@@H](CCC(N)=O)C(=O)N[C@@H](CCC(N)=O)C(=O)O)[C@@H](C)O [biotin ANG-TAT] (H-TFFYGGSRGKRNNFK(Biotin)TEEYGRKKRRQRRRPPQQ-OH)	–	–	1.8 fold

Reference: article PMC5346723, “Delivery of a peptide-drug conjugate targeting the blood brain barrier improved the efficacy of paclitaxel against glioma” (Oncotarget, 2016)
